From article PMC7473772 (eLife, 2020)
Where “and” joins values, the source holds several entries; their conditions need not be identical. Equal values may be shown once. Read-outs that look alike come from different tables or passages of the source.

Key:
tbaqp1-2-3 null cells = assay: Drug sensitivity assay (resazurin), pentamidine and SHAM; type: cell-based, Trypanosoma brucei brucei; details: KO AQP1-3
[1] = system: tbaqp2/tbaqp3 null cells expressing TbAQP2 L84M; assay: microbe, parasite or virus in culture; type: cell-based, Trypanosoma brucei brucei; details: Trypanosoma brucei
TbAQP2^L264R = TbAQP2^L264R (Trypanosoma brucei brucei, UniProt Q6ZXT3, L264R); assay: [3H]-pentamidine transport; type: cell-based; details: 30 nM [3H]-pentamidine
[2] = system: tbaqp2/tbaqp3 null cells expressing TbAQP2^L258Y; type: cell-based, Trypanosoma brucei brucei
TbAQP3^W102I/R256L = TbAQP3^W102I/R256L (Trypanosoma brucei brucei, UniProt Q6ZXT2, R256L/W102I); assay: [3H]-pentamidine transport; type: cell-based; details: AQP3 W102I/R256L; over 30 minutes
TbAQP2 L118M = TbAQP2 L118M (Trypanosoma brucei brucei, UniProt Q6ZXT3, L118M); assay: [3H]-pentamidine transport; type: cell-based; details: AQP2 mutant L118M
TbAQP2^L84W/L118W = TbAQP2^L84W/L118W (Trypanosoma brucei brucei, UniProt Q6ZXT3, L118W/L84W); assay: [3H]-pentamidine transport; type: cell-based; details: AQP2 mutant L84W/118W; n=3
[3] = biological target: T1, aqp1/aqp2/aqp3 null cells expressing TbAQP2-WT (Trypanosoma brucei brucei, UniProt Q6ZXT3); assay: Inhibition of [3H]-pentamidine uptake (dose response); type: cell-based; details: zero inhibitor point 0.01011
T1 sequence (Q6ZXT3 1-312): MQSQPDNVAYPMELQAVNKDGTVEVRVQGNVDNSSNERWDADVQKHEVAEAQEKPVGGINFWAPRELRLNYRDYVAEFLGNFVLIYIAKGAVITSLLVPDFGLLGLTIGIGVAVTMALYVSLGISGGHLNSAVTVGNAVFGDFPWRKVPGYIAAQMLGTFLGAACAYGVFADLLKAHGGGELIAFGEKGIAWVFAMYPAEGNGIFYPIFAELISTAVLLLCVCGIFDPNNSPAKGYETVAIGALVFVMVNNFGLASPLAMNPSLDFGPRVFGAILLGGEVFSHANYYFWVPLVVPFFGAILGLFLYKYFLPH

TbAQP2 L218M = TbAQP2 L218M (Trypanosoma brucei brucei, UniProt Q6ZXT3, L218M); assay: [3H]-pentamidine transport; type: cell-based; details: AQP2 mutant L218M; n=3
TbAQP2 L118W = TbAQP2 L118W (Trypanosoma brucei brucei, UniProt Q6ZXT3, L118W); assay: [3H]-pentamidine transport; type: cell-based; details: AQP2 mutant L118W; n=6
TbAQP2WT [4] = biological target: TbAQP2WT (Trypanosoma brucei brucei, UniProt Q6ZXT3); assay: cell-based
TbAQP2WT [5] = assay: cell-based; parameters: species or system Trypanosoma brucei brucei
[6] = system: tbaqp2/tbaqp3 null cells expressing TbAQP2^L264R; type: cell-based, Trypanosoma brucei brucei
[7] = biological target: T1, aqp1/aqp2/aqp3 null cells expressing TbAQP2-WT; assay: Inhibition of [3H]-glycerol uptake; type: cell-based; details: for glycerol uptake: zero inhibitor point 0.002246
TbAQP2^I190T/W192G = TbAQP2^I190T/W192G (Trypanosoma brucei brucei, UniProt Q6ZXT3, I190T/W192G); type: cell-based; details: Fig. 3A, exp AQP016-AQP023; AQP2 mutant I190T/W192G
TbAQP2 L84M = TbAQP2 L84M (Trypanosoma brucei brucei, UniProt Q6ZXT3, L84M); assay: [3H]-pentamidine transport; type: cell-based; details: AQP2 mutant L84M; n=3
[8] = system: tbaqp2/tbaqp3 null cells expressing TbAQP2 L218W; assay: microbe, parasite or virus in culture; type: cell-based, Trypanosoma brucei brucei
TbAQP2 L218W = TbAQP2 L218W (Trypanosoma brucei brucei, UniProt Q6ZXT3, L218W); assay: [3H]-pentamidine transport; type: cell-based; details: AQP2 mutant L218W; n=4
tbaqp2/tbaqp3 null cells = assay: microbe, parasite or virus in culture; type: cell-based, Trypanosoma brucei brucei
[9] = system: tbaqp2/tbaqp3 null cells expressing TbAQP3^W102I/R256L/Y250L; type: cell-based, Trypanosoma brucei brucei
TbAQP2/HAPT1 = TbAQP2/HAPT1 (Trypanosoma brucei brucei, UniProt Q6ZXT3); assay: cell-based; type: cell-based
[10] = system: tbaqp2/tbaqp3 null cells expressing TbAQP2 L118W; assay: microbe, parasite or virus in culture; type: cell-based, Trypanosoma brucei brucei
[11] = read-out: Alamar blue EC50, single repeats
[12] = Trypanosoma brucei, read-out: Alamar blue EC50, single repeats
[13] = read-out: Alamar blue EC50, MEAN
[14] = Trypanosoma brucei, read-out: Alamar blue EC50, MEAN
[15] = Trypanosoma brucei, read-out: EC50 AVG

TbAQP2 L118M, sequence (Q6ZXT3 whole entry L118M): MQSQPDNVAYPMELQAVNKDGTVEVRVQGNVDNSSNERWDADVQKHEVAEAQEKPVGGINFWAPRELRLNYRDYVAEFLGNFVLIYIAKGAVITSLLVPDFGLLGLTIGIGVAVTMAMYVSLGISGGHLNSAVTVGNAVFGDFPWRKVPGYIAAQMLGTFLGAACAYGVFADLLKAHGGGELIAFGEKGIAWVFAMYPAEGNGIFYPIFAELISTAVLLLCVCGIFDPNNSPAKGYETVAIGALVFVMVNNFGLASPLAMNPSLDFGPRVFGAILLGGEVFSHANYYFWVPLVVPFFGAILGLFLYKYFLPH
TbAQP2^I190T/W192G, sequence (Q6ZXT3 whole entry I190T/W192G): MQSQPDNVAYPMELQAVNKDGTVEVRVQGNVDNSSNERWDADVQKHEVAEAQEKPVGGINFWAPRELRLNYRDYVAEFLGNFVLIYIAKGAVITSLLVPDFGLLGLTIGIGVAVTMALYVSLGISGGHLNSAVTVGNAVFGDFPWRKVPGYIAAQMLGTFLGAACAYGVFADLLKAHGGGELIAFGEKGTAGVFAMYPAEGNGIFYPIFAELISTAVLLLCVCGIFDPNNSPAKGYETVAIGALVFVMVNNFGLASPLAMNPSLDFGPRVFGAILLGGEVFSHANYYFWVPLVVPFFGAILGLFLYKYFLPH
TbAQP2 L84M, sequence (Q6ZXT3 whole entry L84M): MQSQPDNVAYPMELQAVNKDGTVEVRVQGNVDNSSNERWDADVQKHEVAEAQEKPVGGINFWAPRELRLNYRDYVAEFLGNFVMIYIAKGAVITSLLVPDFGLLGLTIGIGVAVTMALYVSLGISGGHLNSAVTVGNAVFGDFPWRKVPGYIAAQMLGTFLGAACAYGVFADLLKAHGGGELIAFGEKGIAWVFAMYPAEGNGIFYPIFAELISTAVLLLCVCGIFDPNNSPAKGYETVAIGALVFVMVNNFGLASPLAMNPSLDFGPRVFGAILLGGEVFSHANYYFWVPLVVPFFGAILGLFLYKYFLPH
TbAQP3^W102I/R256L, sequence (Q6ZXT2 whole entry W102I/R256L): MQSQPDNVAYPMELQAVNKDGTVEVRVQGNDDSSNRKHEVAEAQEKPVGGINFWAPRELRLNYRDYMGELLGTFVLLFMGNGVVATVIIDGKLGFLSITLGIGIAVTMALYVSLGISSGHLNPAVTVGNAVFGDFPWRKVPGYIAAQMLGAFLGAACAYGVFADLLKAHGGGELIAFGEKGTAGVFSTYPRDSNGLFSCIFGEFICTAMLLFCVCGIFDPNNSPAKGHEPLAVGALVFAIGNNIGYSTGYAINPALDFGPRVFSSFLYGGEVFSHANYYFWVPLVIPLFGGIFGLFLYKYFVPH
TbAQP2 L218M, sequence (Q6ZXT3 whole entry L218M): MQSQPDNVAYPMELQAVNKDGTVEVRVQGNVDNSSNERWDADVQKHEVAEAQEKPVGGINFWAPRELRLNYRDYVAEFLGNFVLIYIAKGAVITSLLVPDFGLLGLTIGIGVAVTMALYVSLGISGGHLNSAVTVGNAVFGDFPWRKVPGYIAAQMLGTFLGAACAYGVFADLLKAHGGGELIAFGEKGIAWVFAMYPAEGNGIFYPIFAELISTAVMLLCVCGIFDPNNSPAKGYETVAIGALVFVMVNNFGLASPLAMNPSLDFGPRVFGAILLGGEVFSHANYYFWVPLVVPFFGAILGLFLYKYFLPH
TbAQP2 L118W, sequence (Q6ZXT3 whole entry L118W): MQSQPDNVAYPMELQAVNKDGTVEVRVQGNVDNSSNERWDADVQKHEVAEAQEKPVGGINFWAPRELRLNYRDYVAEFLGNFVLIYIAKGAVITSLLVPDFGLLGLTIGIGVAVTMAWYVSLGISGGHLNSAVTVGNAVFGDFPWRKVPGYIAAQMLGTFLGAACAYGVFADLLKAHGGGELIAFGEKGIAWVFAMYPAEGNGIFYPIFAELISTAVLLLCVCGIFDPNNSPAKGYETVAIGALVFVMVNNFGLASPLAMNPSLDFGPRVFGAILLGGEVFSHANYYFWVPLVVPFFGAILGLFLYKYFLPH
TbAQP2^L84W/L118W, sequence (Q6ZXT3 whole entry L84W/L118W): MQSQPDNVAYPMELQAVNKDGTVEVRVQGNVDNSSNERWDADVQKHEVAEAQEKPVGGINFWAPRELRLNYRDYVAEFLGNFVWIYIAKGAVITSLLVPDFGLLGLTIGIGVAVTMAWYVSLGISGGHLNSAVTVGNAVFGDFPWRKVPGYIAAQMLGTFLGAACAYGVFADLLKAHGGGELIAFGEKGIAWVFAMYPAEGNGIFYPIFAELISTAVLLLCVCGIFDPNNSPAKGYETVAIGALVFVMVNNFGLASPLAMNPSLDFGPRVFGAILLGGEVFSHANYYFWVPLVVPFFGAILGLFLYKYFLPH
TbAQP2 L218W, sequence (Q6ZXT3 whole entry L218W): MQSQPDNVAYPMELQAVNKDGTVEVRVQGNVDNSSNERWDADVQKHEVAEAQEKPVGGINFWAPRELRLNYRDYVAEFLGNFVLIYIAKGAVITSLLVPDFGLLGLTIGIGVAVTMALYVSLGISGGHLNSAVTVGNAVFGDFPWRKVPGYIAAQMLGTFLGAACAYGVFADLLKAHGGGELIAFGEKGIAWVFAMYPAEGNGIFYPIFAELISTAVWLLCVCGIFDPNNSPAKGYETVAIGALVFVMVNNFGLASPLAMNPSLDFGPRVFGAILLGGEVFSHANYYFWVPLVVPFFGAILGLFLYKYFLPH
TbAQP2^L264R, sequence (Q6ZXT3 whole entry L264R): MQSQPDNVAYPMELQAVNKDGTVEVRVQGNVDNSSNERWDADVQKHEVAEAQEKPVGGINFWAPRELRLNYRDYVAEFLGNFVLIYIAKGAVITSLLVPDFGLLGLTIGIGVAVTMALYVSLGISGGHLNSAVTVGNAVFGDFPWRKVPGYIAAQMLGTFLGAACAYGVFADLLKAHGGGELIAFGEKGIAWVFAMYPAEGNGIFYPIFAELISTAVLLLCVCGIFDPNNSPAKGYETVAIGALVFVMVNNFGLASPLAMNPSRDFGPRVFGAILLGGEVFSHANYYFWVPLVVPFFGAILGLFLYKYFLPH

**Q.** What does the source list for `N=C(N)c1ccc(OCCCCCOc2ccc(C(=N)N)cc2)cc1` [Pentamidine]?
**A.** EC50 (tbaqp1-2-3 null cells; [11]): 75.4 nM and 63.9 nM; EC50 (tbaqp1-2-3 null cells; Trypanosoma brucei, 3 repeats, read-out: Alamar blue EC50, MEAN): 69.3 nM; EC50 (tbaqp1-2-3 null cells; [12]): 68.7 nM; EC50 [1, 13]: 0.43 nM; EC50 ([1]; read-out: EC50 AVG): 0.43 nM; Pentamidine transport rate (TbAQP2^L264R): 0.00017 pmol/10E7 cells/s; EC50, percent of AQP2/3 null EC50 [2]: 0.50%; Pentamidine transport rate (TbAQP3^W102I/R256L): 1.51E-04 pmol/10E7 cells/s; Pentamidine transport rate AVG (TbAQP2 L118M; n=3): 0.0006601 pmol/10E7 cells/s; Pentamidine transport rate (TbAQP2 L118M; single experiments): 0.000589 pmol/10E7 cells/s and 0.000736 pmol/10E7 cells/s and 0.0006552 pmol/10E7 cells/s; Pentamidine transport rate AVG (TbAQP2^L84W/L118W): 0.0002985 pmol/10E7 cells/s; pentamidine uptake ([3]; log[inhibitor] -3.60): -1.5e-19; pentamidine uptake ([3]; log[inhibitor] -6.48): 0.001052; pentamidine uptake ([3]; log[inhibitor] -7.00): 0.005102; pentamidine uptake ([3]; log[inhibitor] -7.52): 0.006394; pentamidine uptake ([3]; log[inhibitor] -8.00): 0.007854; pentamidine uptake ([3]; log[inhibitor] -8.48): 0.008733; pentamidine uptake ([3]; log[inhibitor] -9.00): 0.008545; pentamidine uptake ([3]; log[inhibitor] -9.48): 0.009352; Pentamidine transport rate AVG (TbAQP2 L218M): 0.004612 pmol/10E7 cells/s; Pentamidine transport rate AVG (TbAQP2 L118W): 0.0006283 pmol/10E7 cells/s; EC50 (TbAQP2WT [4]): 41 ± 17 nM; Pentamidine transport rate AVG (TbAQP2WT [4]): 0.02122 pmol/10E7 cells/s; Pentamidine transport rate as percent of +AQP2-WT, AVG (TbAQP2WT [4]): 100.0%; Pentamidine transport rate as percent of +AQP2-WT, single experiments (TbAQP2WT [4]): 100.0%; Pentamidine transport rate, AVG (TbAQP2WT [4]): 0.02122 pmol/10E7 cells/s and 0.03781 pmol/10E7 cells/s; Pentamidine transport rate, percent of +AQP2-WT, AVG (TbAQP2WT [4]): 100.00% of +AQP2-WT; Transport rate AVG (TbAQP2WT [4]): 100; activity at 0.03 µM (TbAQP2WT [4]; read-out: Pentamidine transport rate, percent of +AQP2-WT): 100%; Km (TbAQP2WT [5]; TbAQP2-WT cells, read-out: Km of low affinity component (LAPT1)): 82.7 ± 17.5 µM; [3H]-pentamidine taken up by the low affinity component (TbAQP2WT [5]; highly similar for TbAQP2^I190T and TbAQP2WT cell lines): approximately 0.0005 pmol(10^7 cells)^−1 s^−1; EC50, percent of AQP2/3 null EC50 [6]: 126.58%; EC50 [7]: 27.5 nM; glycerol uptake ([7]; log[inhibitor] -3.60): 6.78e-20; glycerol uptake ([7]; log[inhibitor] -6.48): 0.000111; glycerol uptake ([7]; log[inhibitor] -7.00): 0.000765; glycerol uptake ([7]; log[inhibitor] -7.52): 0.00147; glycerol uptake ([7]; log[inhibitor] -8.00): 0.002105; glycerol uptake ([7]; log[inhibitor] -8.48): 0.002143; glycerol uptake ([7]; log[inhibitor] -9.00): 0.002263; glycerol uptake ([7]; log[inhibitor] -9.48): 0.002177; Pentamidine transport rate as percent of +AQP2-WT, AVG (TbAQP2^I190T/W192G): 2.70%; Pentamidine transport rate, AVG (TbAQP2^I190T/W192G): 0.0005659 pmol/10E7 cells/s; Pentamidine transport rate AVG (TbAQP2 L84M): 0.003585 pmol/10E7 cells/s; EC50 [8, 14]: 4.39 nM; EC50 [8, 12]: 4 nM; EC50 [8, 15]: 4.4 nM; EC50 [8, 11]: 3.9 nM and 5.3 nM; Pentamidine transport rate AVG (TbAQP2 L218W): 0.002093 pmol/10E7 cells/s; EC50, percent of AQP2/3 null EC50 (tbaqp2/tbaqp3 null cells): 100.00%; EC50 as percent of AQP2/3 null EC50, MEAN (tbaqp2/tbaqp3 null cells): 100.00%; EC50 as percent of AQP2/3 null EC50, single repeats (tbaqp2/tbaqp3 null cells): 100%; EC50 (tbaqp2/tbaqp3 null cells; [14]): 66.3 nM; EC50 (tbaqp2/tbaqp3 null cells; [12]): 69.3 nM; EC50 (tbaqp2/tbaqp3 null cells; [13]): 72.3 nM; EC50 (tbaqp2/tbaqp3 null cells; [11]): 52.1 nM and 77.6 nM and 77.5 nM and 68.9 nM and 70.5 nM; EC50 as percent of AQP2/3 null EC50, MEAN [9]: 31.94%; ΔG0 (TbAQP2/HAPT1): -10.2 kcal/mol; ΔG^0 (binding energy of substrate-transporter pair) (TbAQP2/HAPT1): -10.2 kcal/mol; δ(ΔG0) (TbAQP2/HAPT1): 0 kcal/mol; Ki (TbAQP2/HAPT1; Ki): 36 ± 0.6 nM; Ki (TbAQP2/HAPT1; Ki / affinity): 35 nM; EC50 [10, 14]: 46.3 nM; EC50 [10, 12]: 52.4 nM; EC50 [10, 15]: 46.3 nM; EC50 [10, 11]: 40.8 nM and 45.7 nM
